Measured values taken from ChEMBL document CHEMBL4732091, “Design, synthesis and biological evaluation of novel thiosemicarbazone-indole derivatives targeting prostate cancer cells” (Eur J Med Chem, 2021).
Calls of active or inactive are those of the source. The rule behind the calls is not given here.

Experiments:
[1] = Toxicity in C57BL/6 mouse assessed as effect on kidney at 2 mg/kg, IG measured after 2 weeks by hematoxylin and eosin staining based imaging analysis; format: organism-based; details: in vivo, po, 336 h
DU-145 [2] = experiment: Induction of apoptosis in human DU-145 cells assessed as early apoptotic cells at 2 uM measured after 72 hrs by Annexin V-FITC/propidium iodide staining based flow cytometry method (reference value: 0.835 %); format: functional
PC-3 [3] = experiment: Antiproliferative activity against human PC-3 cells assessed as inhibition of cell proliferation at 0.156 to 20 uM by MTT assay; format: functional, cell-based; details: dose 0.156-20 µM, time 24-72 hrs, TDE = time-dependent effect
PC-3 [4] = experiment: Induction of apoptosis in human PC-3 cells assessed as cell rounding at 25 to 100 nM measured after 72 hrs by Hoechst staining based fluorescence microscope method; format: functional; details: dose 25-100 nM
[5] = Toxicity in C57BL/6 mouse assessed as effect on spleen at 2 mg/kg, IG measured after 2 weeks by hematoxylin and eosin staining based imaging analysis; format: organism-based; details: in vivo, po, 336 h
[6] = Toxicity in C57BL/6 mouse assessed as effect on liver at 2 mg/kg, IG measured after 2 weeks by hematoxylin and eosin staining based imaging analysis; format: organism-based; details: in vivo, po, 336 h
PC-3 [7] = experiment: Induction of apoptosis in human PC-3 cells assessed as increase in Bax expression at 25 to 100 nM measured by Western blot assay; format: functional, cell-based; details: dose 25-100 nM
PC-3 [8] = experiment: Antiproliferative activity against human PC-3 cells assessed as inhibition of cell proliferation measured after 24 to 72 hrs by MTT assay; format: functional, cell-based; details: dose 0.156-20 µM, time 24-72 hrs
PC-3 [9] = experiment: Induction of apoptosis in human PC-3 cells assessed as viable cells at 100 nM measured after 72 hrs by Annexin V-FITC/propidium iodide staining based flow cytometry method (reference value: 97.2 %); format: functional; details: read-out: Activity
DU-145 [10] = experiment: Induction of apoptosis in human DU-145 cells assessed as increase in Bax expression at 0.5 to 2 uM measured by Western blot assay; format: functional, cell-based; details: dose 0.5-2 µM
PC-3 [11] = experiment: Cytotoxicity against human PC-3 cells assessed as cell viability pre-treated with SB203580 for 4 hrs followed by compound treatment and measured after 72 hrs by MTT assay; format: functional, cell-based
PC-3 [12] = experiment: Antiproliferative activity against human PC-3 cells assessed as inhibition of cell proliferation measured after 72 hrs by MTT assay; format: functional, cell-based; details: PC-3, 72 h
DU-145 [13] = experiment: Induction of apoptosis in human DU-145 cells assessed as reduction in Bcl-2 expression at 0.5 to 2 uM measured by Western blot assay; format: functional, cell-based; details: dose 0.5-2 µM
DU-145 [14] = experiment: Induction of ROS generation in human DU-145 cells assessed as intracellular ROS level at 6 uM measured after 48 hrs by DCFH-DA staining based flowcytometry method (reference value: 52 %); format: functional
DU-145 [15] = experiment: Induction of apoptosis in human DU-145 cells assessed as viable cells at 2 uM measured after 72 hrs by Annexin V-FITC/propidium iodide staining based flow cytometry method (reference value: 96.3 %); format: functional; details: read-out: Activity
MGC-803 = experiment: Antiproliferative activity against human MGC-803 cell line cells assessed as inhibition of cell proliferation measured after 72 hrs by MTT assay; format: functional, cell-based; details: MGC-803, 72 h
PC-3 [16] = experiment: Induction of apoptosis in human PC-3 cells assessed as reduction in Bcl-2 expression at 25 to 100 nM measured by Western blot assay; format: functional, cell-based; details: dose 25-100 nM
DU-145 [17] = experiment: Induction of apoptosis in human DU-145 cells assessed as necrotic cells at 2 uM measured after 72 hrs by Annexin V-FITC/propidium iodide staining based flow cytometry method (reference value: 1.13 %); format: functional
DU-145 [18] = experiment: Induction of apoptosis in human DU-145 cells assessed as increased cleaved caspase 9/3 at 0.5 to 2 uM measured by Western blot assay; format: functional, cell-based; details: dose 0.5-2 µM
PC-3 [19] = experiment: Antiproliferative activity against human PC-3 cells assessed as inhibition of cell proliferation in presence of Fe3+ measured after 72 hrs by MTT assay; format: functional, cell-based
DU-145 [20] = experiment: Induction of apoptosis in human DU-145 cells assessed as necrotic cells at 0.5 uM measured after 72 hrs by Annexin V-FITC/propidium iodide staining based flow cytometry method (reference value: 1.13 %); format: functional
PC-3 [21] = experiment: Induction of apoptosis in human PC-3 cells assessed as nuclear fragmentation at 25 to 100 nM measured after 72 hrs by Hoechst staining based fluorescence microscope method; format: functional, cell-based; details: dose 25-100 nM
PC-3 [22] = experiment: Antitumour activity against human PC-3 cells xenografted in BALB/c-NU mouse assessed as reduction in tumour growth at 12.5 mg/kg, IG qd measured after 21 days relative to control; format: functional; parameters: scale not given: the % may be the effect or the level left; details: time 21 day
DU-145 [23] = experiment: Induction of apoptosis in human DU-145 cells assessed as necrotic cells at 1 uM measured after 72 hrs by Annexin V-FITC/propidium iodide staining based flow cytometry method (reference value: 1.13 %); format: functional
PC-3 [24] = experiment: Induction of apoptosis in human PC-3 cells assessed as necrotic cells at 25 nM measured after 72 hrs by Annexin V-FITC/propidium iodide staining based flow cytometry method (reference value: 1.2 %); format: functional
PC-3 [25] = experiment: Induction of apoptosis in human PC-3 cells assessed as increased cleaved caspase 9/3 expression at 25 to 100 nM measured by Western blot assay; format: functional, cell-based; details: dose 25-100 nM
[26] = Cytotoxicity against human WPMY-1 cell line cells assessed as inhibition of cell proliferation measured after 72 hrs by MTT assay; format: cell-based; details: WPMY-1, 72 h
[27] = Toxicity in C57BL/6 mouse assessed as effect on lung at 2 mg/kg, IG measured after 2 weeks by hematoxylin and eosin staining based imaging analysis; format: organism-based; details: in vivo, po, 336 h
[28] = Toxicity in BALB/c-NU mouse assessed as changes in body weight at 12.5 to 25 mg/kg, IG qd for 21 days measured every 2 days; format: organism-based; details: in vivo, po, 504 h, dose 12.5-25 mg/kg, time 21 day
DU-145 [29] = experiment: Induction of ROS generation in human DU-145 cells assessed as increase in intracellular ROS level measured after 48 hrs by DCFH-DA staining based flowcytometry method; format: functional, cell-based; details: dose 0.5-2 µM
DU-145 [30] = experiment: Induction of apoptosis in human DU-145 cells assessed as early apoptotic cells at 0.5 uM measured after 72 hrs by Annexin V-FITC/propidium iodide staining based flow cytometry method (reference value: 0.835 %); format: functional
DU-145 [31] = experiment: Induction of apoptosis in human DU-145 cells assessed as late apoptotic cells at 0.5 uM measured after 72 hrs by Annexin V-FITC/propidium iodide staining based flow cytometry method (reference value: 1.77 %); format: functional
PC-3 [32] = experiment: Induction of cell cycle arrest in human PC-3 cells assessed as accumulation of cells in G1/S phase at 500 nM measured after 48 hrs by propidium iodide staining based flowcytometry method (reference value: 19.23%); format: functional
[33] = Toxicity in C57BL/6 mouse assessed as effect on heart at 2 mg/kg, IG measured after 2 weeks by hematoxylin and eosin staining based imaging analysis; format: organism-based; details: in vivo, po, 336 h
PC-3 [34] = experiment: Activation of MAPK signaling in human PC-3 cells assessed as increase in phosphorylated ERK 1/2 (Thr 202/Tyr 204) at 125 to 500 nM measured by Western blot assay; format: cell-based; details: filed as activator, dose 125-500 nM

## Cc1ccc(/C=N/NC(=S)Nc2ccc(C(=O)NCCc3c(C)[nH]c4ccccc34)cc2)nc1
[1]
  Activity: Non-Toxic
DU-145 [2]
  Activity: 10.5%
PC-3 [3]
  Activity: Tde
PC-3 [4]
  Activity: Active
[5]
  Activity: Non-Toxic
[6]
  Activity: Non-Toxic
PC-3 [7]
  Activity: Active
PC-3 [8]
  inhibition: Dose-dependent effect
PC-3 [9]
  viability at 0.1 µM: 35.9%
DU-145 [10]
  Activity: Active
PC-3 [11]
  inhibition: inactive
PC-3 [12]
  IC50: 0.054 µM
DU-145 [13]
  Activity: Active
DU-145 [14]
  Activity: 86.2%
DU-145 [15]
  viability at 2 µM: 43.8%
MGC-803
  IC50: 4.72 µM
PC-3 [16]
  Activity: Active
DU-145 [17]
  Activity: 7.23%
DU-145 [18]
  Activity: Active
PC-3 [19]
  inhibition: Active
DU-145 [20]
  Activity: 1.95%
PC-3 [21]
  Activity: Active
PC-3 [22]
  Activity: 53.6%
DU-145 [23]
  Activity: 4.81%
PC-3 [24]
  Activity: 2.06%
PC-3 [25]
  Activity: Active
[26]
  IC50: 19.5 µM
[27]
  Activity: Non-Toxic
[28]
  Activity: Non-Toxic
DU-145 [29]
  Activity: Dose-dependent effect
DU-145 [30]
  Activity: 0.41%
DU-145 [31]
  Activity: 3.78%
PC-3 [32]
  Activity: 49.02%
[33]
  Activity: Non-Toxic
PC-3 [34]
  Activity: Active
